# Experimental data taken from paper PMC5503023 (2016).
# How the values were obtained:
# [1] = tested on: bcl-2 G-quadruplex DNA (DNA, G4) CGGGCGCGGGAGGAAGGGGGCGGGAGC; assay: CD melting at 280 nm; conditions: 100 mM KCl; 10 mM Tris-HCl, pH 7.4; 10 μM complex, 100 μM DNA
# [2] = tested on: bcl-2 G-quadruplex DNA (DNA, G4) CGGGCGCGGGAGGAAGGGGGCGGGAGC; assay: UV-vis absorption titration; conditions: 100 mM KCl; 10 mM Tris-HCl, pH 7.4; 20 μM complex; intrinsic binding constant
smiles,measurement,setting,value
Clc1ccc(-c2nc3c4cccnc4c4ncccc4c3[nH]2)cc1.[Cl-].[Ru+2].c1ccccc1,ΔTm,[1],4.2 °C
same,K,[2],~ 2.94 × 10^6 M^-1
